Consider 47 molecules from PubChem BioAssay (NCI).

Molecules are shown by their SMILES.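 Growth conditions: 96-well plates. Treatment: test compound, 48 hours, 5 concentrations. Analysis: linear interpolation between bracketing concentrations; unreached endpoints set to highest concentration. Abbreviation: GI50, concentration required for 50% inhibition of growth. TGI: total growth inhibition.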 Where only a bound is given, the exact number is not on record here.

This experiment deals with MDA-MB-468 breast. The experiment is described as follows: growth of human tumour cells (NCI), 48 h.
For `COc1ccc(NC(=O)O[C@H]2[C@H](O[C@H]3[C@@H](O)COC(O[C@H]4C[C@H]5[C@@H]6CC=C7C[C@@H](O)CC[C@]7(C)[C@H]6CC[C@]5(C)[C@H]4[C@H](C)C(=O)CCC(C)C)[C@@H]3OC(C)=O)OC[C@@H](O)[C@@H]2O)cc1` (some centres undefined), the GI50 is less than 0.01 µM and the TGI turned out to be 0.63 µM.
The matching figures for `COc1cccc(Nc2nccc(Nc3ccc4[nH]ncc4c3)n2)c1`: 1.25 µM and 2.77 µM.
The matching figures for `N#Cc1c(Oc2ccc(F)c(NC(=O)Cc3cccc(C(F)(F)F)c3)c2)ccc2nc(NC(=O)C3CC3)sc12`: 3.98 µM and greater than 100 µM.
In the same order, the values of `O=C(CC1(O)C(=O)Nc2c(Cl)ccc(Cl)c21)c1ccc(C2CC2)cc1` (centres undefined) are 0.297 µM and 10.2 µM.
For `COc1ccc2c(c1)Oc1nc(N)c(C#N)c(N)c1C2Sc1ccc(C)cc1` (centres undefined), the GI50 was 1.2 µM and the TGI stood at 2.6 µM.
On to `C=C(C)[C@@H]1CC[C@]2(C)[C@H](C=CC3=C4C[C@@](C)(CO)CC[C@]4(C)CC[C@]32C)[C@@]1(C)CCCN`, for which the GI50 is 1.58 µM and the TGI is 3.2 µM.
The matching figures for `O=C(NO)c1cnc(N2CCN(S(=O)(=O)c3ccc4ccccc4c3)CC2)nc1`: 0.0743 µM and 6.5 µM.
In the same order, the values of `Brc1ccc(Br)nn1` are 1.14 µM and 2.47 µM.
The matching figures for `C[C@@H]1CN2[C@H]3[C@@H]1CC[C@]31CCC(=O)O[C@]1(C)[C@@H]1CC[C@H]3CCC=C3[C@@H]12`: greater than 70 µM and greater than 70 µM.
On to `CNCCOc1nc2c3cnccc3cc(-c3cc(OC)c(OC)c(OC)c3)c2c2ccncc12`, for which the GI50 was 0.0278 µM and the TGI was 0.106 µM.
In the same order, the values of `COc1cc(/C=C/C(=O)c2ccc(Nc3nc(Nc4ccccc4)nc(Nc4ccc(Cl)cc4)n3)cc2)cc(OC)c1OC` are 11.7 µM and greater than 32.5 µM.
In the case of `CCCCCCC1N=C(N)N=C(N)N1c1ccc(Cl)cc1` (centres undefined), the GI50 was 1.35 µM and the TGI worked out at 4.72 µM.
The matching figures for `COc1cc(C2C(C#N)=C(N)Oc3cc4c(cc32)OCO4)cc2c1OCO2` (centres undefined): 0.112 µM and 0.836 µM.
The matching figures for `COc1ccc(C2C3=C(COC3=O)N(CCO)c3cc4c(cc32)OCCO4)cc1OC` (centres undefined): 0.786 µM and 5.19 µM.
Take `CC[C@H](C)[C@H](NC(=O)C12CC(NC(C)=O)(C1)C2)C(=O)N(C)[C@H](C[C@@H](OC(C)=O)c1nc(C(=O)N[C@@H](Cc2ccccc2)C[C@H](C)C(=O)OC)cs1)C(C)C`: the GI50 is 0.0584 µM and the TGI was greater than 9.3 µM.
`O=C(Nc1ccc(S(=O)(=O)NC2CCCCCC2)cc1)C(c1ccccc1)S(=O)(=O)c1ccc(F)cc1` (centres undefined): the GI50 was 0.863 µM and the TGI came out at 3.23 µM.
In the same order, the values of `C=C=[CH][Sn]([c]1ccccc1)([c]1ccccc1)[c]1ccccc1` are 1.34 µM and 2.66 µM.
In the same order, the values of `CCOC(=O)C(Cc1ccc(OC)cc1)C(=O)OCC` are 4.17 µM and 20.6 µM.
Take `O=c1cc(-c2ccccc2Cl)[nH]c2cc3c(cc12)OCO3`: the GI50 was 13.9 µM and the TGI is greater than 100 µM.
The matching figures for `CC(=O)N[C@@H](Cc1ccc(OP(=O)(O)O)cc1)C(=O)N[C@H]1CCC(=O)N2CCC[C@@H](C(=O)NCc3ccc(O)cc3)N2C1=O`: greater than 25 µM and greater than 25 µM.
The matching figures for `CC(C)N(C[C@H]1O[C@@H](n2cnc3c(N)ncnc32)[C@H](O)[C@@H]1O)C1CC(CCc2nc3ccc(C(C)(C)C)cc3[nH]2)C1` (some centres undefined): 18.4 µM and greater than 72.6 µM.
In the case of `C=C1C(=O)OC2CC3(C)OC3C3OC3C3=CC(OC3=O)C12` (centres undefined), the GI50 was 1.58 µM and the TGI came out at 3.28 µM.
Take `COC(=O)Nc1nc2ccc(Sc3ccccc3)cc2[nH]1`: the GI50 was 0.165 µM and the TGI came to 1.53 µM.
In the same order, the values of `CCN(CC)c1ccc2nc3c4ccccc4c(=NC(=O)c4ccccc4-c4c5ccc(N(CC)CC)cc5[o+]c5cc(N(CC)CC)ccc45)cc-3oc2c1` are 1.01 µM and 2.43 µM.
The matching figures for `Cc1cc2c(C(C)C)c(O)c(O)c(C=O)c2c(O)c1-c1c(C)cc2c(C(C)C)c(O)c(O)c(C=O)c2c1O` (tested in a mixture with another compound): 1.01 µM and 3.75 µM.
On to `O=[N+]([O-])c1ccc(-c2ccccc2)c([As](=O)(O)O)c1`, for which the GI50 was 11.8 µM and the TGI was determined as 28.1 µM.
In the same order, the values of `C[C@@H](Oc1cc(-c2cnn(C3CC4(CCCNC4)C3)c2)cnc1N)c1c(Cl)ccc(F)c1Cl` (some centres undefined) are 1.09 µM and 2.49 µM.
With `CCNCCNc1cc(-c2cccc(C(F)(F)F)c2)c(C#N)c2nc3ccccc3n12`, the GI50 was 1.34 µM and the TGI came to 2.84 µM.
The matching figures for `COc1ccc(-n2sc(=O)n(Cc3ccc(COC(=O)C(C)c4ccc(CC(C)C)cc4)cc3)c2=O)cc1` (centres undefined): 0.925 µM and 2.13 µM.
In the case of `CON`, the GI50 is greater than 100 µM and the TGI was greater than 100 µM.
Consider `CCCCCc1c(C)[nH]c(/C=c2\[nH]/c(=C3/C=c4ccccc4=N3)cc2OC)c1C`, for which the GI50 was 0.0591 µM and the TGI was 1.63 µM.
In the same order, the values of `CCS/C(Nc1ccccc1)=C(\C#N)C(=O)N/N=C/c1ccc(Cl)cc1Cl` are 2.6 µM and 9.19 µM.
With `C/C(=N\Nc1cccc(Cl)n1)c1ccccn1`, the GI50 is 0.764 µM and the TGI came out at 2.42 µM.
In the same order, the values of `ClC1=C(Cl)C(Cl)=C(Cl)C1=Cc1ccc(Cl)cc1` are 0.251 µM and 0.869 µM.
In the same order, the values of `CN(NC(=O)CC(=O)NN(C)C(=S)c1ccc(Cl)cc1)C(=S)c1ccc(Cl)cc1` are 23.9 µM and greater than 100 µM.
The matching figures for `CC(=O)OCC(=O)C1(O)C(C)CC2C3C=C(C)C4=Cc5c(cnn5-c5ccccc5)CC4(C)C3C(O)CC21C` (centres undefined): 2.03 µM and 4.33 µM.
For the molecule `N#CC[C@H](C1CCCC1)n1cc(-c2ncnc3[nH]ccc23)cn1`, the GI50 is 23.2 µM and the TGI came to 78.8 µM.
For `N#CSCC(=O)c1ccc(Cl)cc1`, the GI50 was 2.28 µM and the TGI came out at 10.4 µM.
The matching figures for `CCN1C(=O)N(CC)C2C1NN=c1s/c(=C\c3ccccc3)c(=O)n12` (centres undefined): 0.0867 µM and greater than 100 µM.
In the same order, the values of `CS[C@@]1(C(=O)Nc2ccc3[nH]nc(-c4ccc(OC(C)C)nc4)c3c2)CCN(CC(=O)N2CC=C(c3ccc(-c4ncn(C)n4)cc3)CC2)C1` are greater than 100 µM and greater than 100 µM.
Turning to `Cc1cc2nc3c4ccccc4n(CCN(C)C)c3nc2cc1C`, the GI50 was 1.32 µM and the TGI came to 3.62 µM.
`CCOc1cc(/C=N\NC(=O)N/N=C/c2ccc(O)c(OCC)c2)ccc1O`: the GI50 was 1.44 µM and the TGI is 7.27 µM.
In the same order, the values of `COc1cnc2c(c1)C(=O)c1c-2n(CCCN2CCN(CCO)CC2)c(=O)c2cc([N+](=O)[O-])ccc12` are 2.47 µM and 7.54 µM.
The matching figures for `CN1CCN(c2ccc3nc4c(nc3c2C(F)(F)F)C(=O)c2ncccc2C4=O)CC1`: 1.06 µM and 2.58 µM.
In the same order, the values of `CCc1ccccc1-n1c(N)c(C#N)c(-c2ccc(OC)c(OC)c2)c(C#N)c1=O` are 37.6 µM and greater than 100 µM.
For the molecule `Oc1[nH]c2ccc(Cl)cc2c1/C=c1/ccc2c(c1)N=C(c1cc(F)cc(F)c1)N=2`, the GI50 was 3.46 µM and the TGI was determined as 13.2 µM.
The matching figures for `CN(C)CCOc1nc2ccccc2c2c1-c1ccc(Cl)cc1C2=O`: 0.606 µM and 1.97 µM.
